Consider 24 compounds from ChEMBL document CHEMBL1143363, “Discovery of trisubstituted cyclohexanes as potent CC chemokine receptor 2 (CCR2) antagonists” (Bioorg Med Chem Lett, 2009).

The target in assay [1] is T1, C-C chemokine receptor type 2 (Homo sapiens, UniProt P41597). In words: Displacement of [125I]MCP1 from CCR2 in human PBMCs. In general terms: Displacement assays read how much labelled ligand stays bound in the presence of the test substance.
Target sequence in this assay (P41597 whole entry): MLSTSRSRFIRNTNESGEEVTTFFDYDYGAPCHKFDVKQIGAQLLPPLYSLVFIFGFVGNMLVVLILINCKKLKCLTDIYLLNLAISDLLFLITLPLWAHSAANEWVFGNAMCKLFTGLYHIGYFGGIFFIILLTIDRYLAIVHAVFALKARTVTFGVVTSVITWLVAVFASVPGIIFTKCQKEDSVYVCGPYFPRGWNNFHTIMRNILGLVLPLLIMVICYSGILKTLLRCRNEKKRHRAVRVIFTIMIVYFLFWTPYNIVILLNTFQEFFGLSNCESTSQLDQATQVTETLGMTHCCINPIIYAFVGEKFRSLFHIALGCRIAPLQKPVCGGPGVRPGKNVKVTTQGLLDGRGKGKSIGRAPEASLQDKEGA
Assay [2] addresses T1, C-C chemokine receptor type 2. In words: Antagonist activity at CCR2 in human monocytes assessed as inhibition of MCP1-induced calcium influx by FLIPR. The class given is functional, cell-based.
Target sequence in this assay (P41597 whole entry): as above
For assay [3] the target is unchanged. Briefly: Displacement of [125I]MCP1 from CCR2 in human PBMCs at 1 uM.
Target sequence in this assay (P41597 whole entry, looked up): as the sequence (P41597 whole entry) above
A short description of assay [4]: Antagonist activity at CCR2 in human PBMCs assessed as inhibition of MCP1-induced chemotaxis.

By IC50 is commonly meant the concentration that inhibits the measured activity by half. In turn, `CSc1ccc(C(=O)NC2CCC(NC(=O)OCc3ccccc3)CC2NC(=O)CNC(=O)c2cc(C(F)(F)F)ccc2NC(=O)OC(C)(C)C)cc1` (racemic) yielded an IC50 in assay [1] of 600 nM.
The same measure, in the same setting: to `CNC(=O)NC1CCC(NC(=O)c2ccc(SC)cc2)C(NC(=O)CNC(=O)c2cc(C(F)(F)F)ccc2N)C1` (racemic) belongs 112 nM.
In the case of `CN(C)C1CCC(NC(=O)CNC(=O)c2cccc(C(F)(F)F)c2)C(NCc2ccc(Cl)cc2)C1` (racemic), the figures for the IC50 in assay [2] and in assay [1] were 7 nM and 16 nM, respectively.
Turning to `CN(C)C1CCC(NC(=O)CNC(=O)c2cccc(C(F)(F)F)c2)C(NCc2ccc(Cl)c(Cl)c2)C1` (racemic), the IC50 in assay [1] was determined as 61.5 nM.
The compound `CSc1ccc(C(=O)NC2CCC(N)CC2NC(=O)CNC(=O)c2cc(C(F)(F)F)ccc2N)cc1` (racemic) had an Activity in assay [3] of 28.1%. The IC50 in assay [1] was 167 nM.
Turning to `CSc1ccc(C(=O)NC2CCC(NC(C)C)CC2NC(=O)CNC(=O)c2cccc(C(F)(F)F)c2)cc1` (racemic), the IC50 in assay [1] is 136 nM.
Turning to `COc1ccc(CNC2CC(N(C)C)CCC2NC(=O)CNC(=O)c2cccc(C(F)(F)F)c2)cc1` (racemic), the 50% inhibitory concentration (IC50) stood at 8 nM in assay [2] and 12.5 nM in assay [1].
For `CN(C)C1CCC(NC(=O)CNC(=O)c2cccc(C(F)(F)F)c2)C(NCc2cccc(C(F)(F)F)c2)C1` (racemic), in that order: 27 nM and 32.5 nM.
For the compound `CC(=O)Nc1ccc(CNC2CC(N(C)C)CCC2NC(=O)CNC(=O)c2cccc(C(F)(F)F)c2)cc1` (racemic), the IC50 in assay [1] is 7.7 nM.
On to `CSc1ccc(C(=O)NC2CC(N)CCC2NC(=O)CNC(=O)c2cc(C(F)(F)F)ccc2N)cc1` (racemic), for which the IC50 stood at 6 nM in assay [2] and 4.8 nM in assay [1].
For `CSc1ccc(CNC2CC(N(C)C)CCC2NC(=O)CNC(=O)c2cccc(C(F)(F)F)c2)cc1` (racemic), in that order: 6 nM and 2.4 nM.
The matching figures for `Cc1ccc(CNC2CC(N(C)C)CCC2NC(=O)CNC(=O)c2cccc(C(F)(F)F)c2)cc1` (racemic): 5.5 nM and 9.9 nM.
Consider `CSc1ccc(C(=O)NC2CCNCC2NC(=O)CNC(=O)c2cc(C(F)(F)F)ccc2N)cc1` (racemic), for which the IC50 in assay [4] was found to be 109 nM.
On to `CSc1ccc(C(=O)NC2CC(N)CCC2NC(=O)CNC(=O)c2cccc(C(F)(F)F)c2)cc1` (racemic), for which, in assay [1], the IC50 came out at 228 nM.
Still for that read-out and setting: to `CSc1ccc(C(=O)NC2CCCCC2NC(=O)CNC(=O)c2cc(C(F)(F)F)ccc2N)cc1` (racemic) belongs 155 nM.
In the case of `CSc1ccc(C(=O)NC2CCC(NC(=O)OCc3ccccc3)CC2NC(=O)CNC(=O)c2cccc(C(F)(F)F)c2)cc1` (racemic), the Activity in assay [3] was 0%. This compound also came in with an IC50 in assay [1] of 1610 nM.
`CSc1ccc(C(=O)NC2CCC(NC(C)C)CC2NC(=O)CNC(=O)c2cc(C(F)(F)F)ccc2N)cc1` (racemic): the IC50 was 2 nM in assay [2] and 3.8 nM in assay [1].
Consider `CC(C)c1ccc(CNC2CC(N(C)C)CCC2NC(=O)CNC(=O)c2cccc(C(F)(F)F)c2)cc1` (racemic), for which the figures for the IC50 in assay [2] and in assay [1] were 19 nM and 16.5 nM, respectively.
The matching figures for `CN(C)C1CCC(NC(=O)CNC(=O)c2cccc(C(F)(F)F)c2)C(NCc2ccc3[nH]ccc3c2)C1` (racemic): 8 nM and 3.1 nM.
`CSc1ccc(C(=O)NC2CC(NC(C)C)CCC2NC(=O)CNC(=O)c2cccc(C(F)(F)F)c2)cc1` (racemic) yielded an Activity in assay [3] of 31.4%.
In turn, `CSc1ccc(C(=O)NC2CCC(N)CC2NC(=O)CNC(=O)c2cccc(C(F)(F)F)c2)cc1` (racemic) had an Activity in assay [3] of 13%.
Still for that read-out and setting: to `CSc1ccc(C(=O)NC2CCC(NC(=O)OCc3ccccc3)CC2NC(=O)CNC(=O)c2cc(C(F)(F)F)ccc2N)cc1` (racemic) belongs 3.1%; to `CSc1ccc(C(=O)NC2CC(NC(=O)OCc3ccccc3)CCC2NC(=O)CNC(=O)c2cccc(C(F)(F)F)c2)cc1` (racemic; form 1), 14%.
With `CSc1ccc(C(=O)NC2CC(NC(=O)OCc3ccccc3)CCC2NC(=O)CNC(=O)c2cccc(C(F)(F)F)c2)cc1` (racemic; form 2), the values for the IC50 in assay [2] and in assay [1] were 2 nM and 2.4 nM, respectively.
